Like-named read-outs stand apart in the source and are kept apart here.
What was measured:
Type in all cases: cell-based, human
[1] = system: U-87 MG; assay: 3H thymidine proliferation assay, U-87 MG
Experimental: (§1) This example generally describes the procedures used to assay the antiproliferative activity of compounds of this invention or their conjugates. Human tumor cell lines were obtained from the American Type Culture Collection (ATCC), P.O. Box 1549, Manassas, Va. 20108, USA, and cultured according to instruction from the ATCC. Cells were seeded at 1.0×10^3 or 1.0×10^4 cells/well in 96-well plates for 3 h for ATP assays or ^3H thymidine assays, respectively. 1:3 serial dilutions of free (unconjugated) compounds or their conjugates were added to the wells. Plates were allowed to incubate for 24 to 72 h. The ^3H thymidine plates were pulsed with 1.0 μCi of ^3H-thymidine per well for the last 24 hours of the total incubation period, harvested, and read on a Top Count Scintillation Counter (Packard Instruments, Meriden, Conn.). ATP levels in the ATP plates were measured using the […]-GLO® Luminescent Cell Viability kit following the manufacturer's manual and read on a GLOMAX® 20/20 luminometer (both from Promega, Madison, Wis., USA). The EC50 values—the concentration at which an agent inhibits or reduces cell proliferation by 50% —were determined using PRISM™ software, version 4.0 (GraphPad Software, La Jolla, Calif., USA).
(§2) Using the ^3H thymidine or the ATP luminescence assay, or both, the activities of compounds of this invention were assayed against the following cancer cell lines: HCT-15 (colorectal cancer, multi-drug resistant (MDR)); Hep3B (liver cancer); LNCaP (prostate cancer, androgen receptor positive (AR^+)); MDA-MB-231 (breast cancer, estrogen receptor, progesterone receptor, and Her2 negative (triple negative)); A2058 (melanoma); U-87 MG (glioblastoma); NCI-H460 (NSCLC); A549 (NSCLC); HPAC (pancreatic cancer, primary); PC3 (prostate cancer, AR); BT474 (breast cancer, Her2 highly positive (Her2hi)); SKOV3 (ovarian cancer, Her2hi); 786-O (renal cancer); UO-31 (renal cancer, MDR); NCI-H740 (SCLC); DMS53 (SCLC); SK-BR3 (breast cancer, Her2hi); ZR-75 (breast cancer, estrogen receptor positive); OVCAR3 (ovarian cancer); HL-60 (APL); OVCAR8/Adr (ovarian cancer, MDR); CEM-Cl (ALL); Nomo-1 (AML); RPMI-8226 (MM)); Raji (lymphoma); SW-480 (colorectal cancer, metastatic); SW-620 (colorectal cancer); and H226 (lung cancer). (Not all compounds were assayed against all cell lines.)
(§3) Table 2 provides the data for proliferation assays using the ^3H thymidine method, with an incubation period of 72 h.

[2] = system: A549; assay: 3H thymidine proliferation assay, A549
Experimental: as §1, §2, §3

[3] = system: PC3; assay: 3H thymidine proliferation assay, PC3
Experimental: as §1, §2, §3

[4] = system: BT474; assay: 3H thymidine proliferation assay, BT474
Experimental: as §1, §2, §3

[5] = system: SKOV3; assay: 3H thymidine proliferation assay, SKOV3
Experimental: as §1, §2, §3

[6] = system: 786-O; assay: 3H thymidine proliferation assay, 786-O
Experimental: as §1, §2, §3

[7] = system: DMS53; assay: 3H thymidine proliferation assay, DMS53
Experimental: as §1, §2, §3

[8] = system: ZR-75; assay: 3H thymidine proliferation assay, ZR-75
Experimental: as §1, §2, §3

[9] = system: HL-60; assay: 3H thymidine proliferation assay, HL-60
Experimental: as §1, §2, §3

[10] = system: RPMI-8226; assay: 3H thymidine proliferation assay, RPMI-8226
Experimental: as §1, §2, §3

[11] = system: HPAC; assay: ATP luminescence proliferation assay, HPAC
Experimental: as §1, §2
(§4) Table 3 provides the data for the ATP luminescence proliferation assays, with an incubation period of 48, 72, or 96 h, as noted.

[12] = system: BT474; assay: ATP luminescence proliferation assay, BT474
Experimental: as §1, §2, §4

[13] = system: SKOV3; assay: ATP luminescence proliferation assay, SKOV3
Experimental: as §1, §2, §4

[14] = system: 786-O; assay: ATP luminescence proliferation assay, 786-O
Procedure, shortened: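 Cells seeded at 1.0×10^3 cells/well for 3 h, then exposed to 1:3 serial dilutions of free compounds or conjugates for 48, 72 or 96 h, as noted. ATP measured by luminescent cell viability kit; EC50 taken as concentration reducing proliferation by 50%.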

[15] = system: UO-31; assay: ATP luminescence proliferation assay, UO-31
Experimental: as §1, §2, §4

[16] = system: Nomo-1; assay: ATP luminescence proliferation assay, Nomo-1
Experimental: as §1, §2, §4

[17] = system: RPMI-8226; assay: ATP luminescence proliferation assay, RPMI-8226
Experimental: as §1, §2, §4

[18] = system: SW-620; assay: ATP luminescence proliferation assay, SW-620
Experimental: as §1, §2, §4

[19] = Homo sapiens, U-87 MG, 3H thymidine method, 72 h incubation, read-out: EC50, U-87 MG
[20] = Homo sapiens, A549, 3H thymidine method, 72 h incubation, read-out: EC50, A549
[21] = Homo sapiens, PC-3, 3H thymidine method, 72 h incubation, read-out: EC50, PC3
[22] = Homo sapiens, BT-474, 3H thymidine method, 72 h incubation, read-out: EC50, BT474
[23] = Homo sapiens, SK-OV-3, 3H thymidine method, 72 h incubation, read-out: EC50, SKOV3
[24] = Homo sapiens, 786-0, 3H thymidine method, 72 h incubation, read-out: EC50, 786-O
[25] = Homo sapiens, DMS-53, 3H thymidine method, 72 h incubation, read-out: EC50, DMS53
[26] = Homo sapiens, ZR75, 3H thymidine method, 72 h incubation, read-out: EC50, ZR-75
[27] = Homo sapiens, HL-60, 3H thymidine method, 72 h incubation, read-out: EC50, HL-60
[28] = Homo sapiens, RPMI-8226, 3H thymidine method, 72 h incubation, read-out: EC50, RPMI-8226
[29] = Homo sapiens, ATP luminescence, 72 h incubation, read-out: EC50 HPAC (72 h)
[30] = Homo sapiens, BT-474, ATP luminescence, BT474, 72 h incubation, read-out: EC50 BT474 (72 h)
[31] = Homo sapiens, SK-OV-3, ATP luminescence, SKOV3, 48 h incubation, read-out: EC50 SKOV3 (48 h)
[32] = Homo sapiens, 786-0, ATP luminescence, 786-O, 48 h incubation, read-out: EC50 786-O (48 h)
[33] = Homo sapiens, ATP luminescence, UO-31, 48 h incubation, read-out: EC50 UO-31 (48 h)
[34] = Homo sapiens, ATP luminescence, Nomo-1, 72 h incubation, read-out: EC50 Nomo-1 (72 h)
[35] = Homo sapiens, ATP luminescence, RPMI-8226, 72 h incubation, read-out: EC50 RPMI-8226 (72 h)
[36] = Homo sapiens, ATP luminescence, SW-620, 96 h incubation, read-out: EC50 SW-620 (96 h)

SMILES	EC50 [1, 19] [nM]	EC50 [2, 20] [nM]	EC50 [3, 21] [nM]	EC50 [4, 22] [nM]	EC50 [5, 23] [nM]	EC50 [6, 24] [nM]	EC50 [7, 25] [nM]	EC50 [8, 26] [nM]	EC50 [9, 27] [nM]	EC50 [10, 28] [nM]	EC50 [11, 29] [nM]	EC50 [12, 30] [nM]	EC50 [13, 31] [nM]	EC50 [14, 32] [nM]	EC50 [15, 33] [nM]	EC50 [16, 34] [nM]	EC50 [17, 35] [nM]	EC50 [18, 36] [nM]	other results
COc1cccc2c1C(=O)c1c(O)c3c(c(O)c1C2=O)C[C@@](O)(C(=O)CO)C[C@@H]3O[C@H]1C[C@H](N)[C@H](O)[C@H](C)O1 [Dox, doxorubicin, reference compound]	106	128	276	424	163	168	979	794	56	68	215	388	674	360	908	338	345	145	–
CC[C@H](C)[C@H](NC(=O)[C@H]1CCCCN1C)C(=O)N(C)[C@H](C[C@@H](OC)c1nc(C(=O)N[C@@H](Cc2ccccc2)C(=O)N[C@@H](C)C(=O)OC)cs1)C(C)C [Compound 24]	–	–	–	–	–	–	–	–	–	–	–	–	–	–	–	–	–	–	EC50 ([1]; Homo sapiens, U-87 MG, read-out: EC50, U-87 MG, 3H thymidine method, 72 h incubation): 18 nM; EC50 ([2]; Homo sapiens, A549, read-out: EC50, A549, 3H thymidine method, 72 h incubation): 38 nM; EC50 ([3]; Homo sapiens, PC-3, read-out: EC50, PC3, 3H thymidine method, 72 h incubation): 63 nM; EC50 ([4]; Homo sapiens, BT-474, read-out: EC50, BT474, 3H thymidine method, 72 h incubation): > 100 nM; EC50 ([5]; Homo sapiens, SK-OV-3, read-out: EC50, SKOV3, 3H thymidine method, 72 h incubation): 68 nM; EC50 ([6]; Homo sapiens, 786-0, read-out: EC50, 786-O, 3H thymidine method, 72 h incubation): > 100 nM; EC50 ([7]; Homo sapiens, DMS-53, read-out: EC50, DMS53, 3H thymidine method, 72 h incubation): > 100 nM; EC50 ([8]; Homo sapiens, ZR75, read-out: EC50, ZR-75, 3H thymidine method, 72 h incubation): 3.6 nM; EC50 ([9]; Homo sapiens, HL-60, read-out: EC50, HL-60, 3H thymidine method, 72 h incubation): 6.9 nM; EC50 ([10]; Homo sapiens, RPMI-8226, read-out: EC50, RPMI-8226, 3H thymidine method, 72 h incubation): 17 nM; EC50 ([11]; Homo sapiens, 72 h, read-out: EC50 HPAC (72 h), ATP luminescence, HPAC, 72 h incubation): 1.1 nM; EC50 ([12]; Homo sapiens, BT-474, 48 h, read-out: EC50 BT474 (48 h), ATP luminescence, BT474, 48 h incubation): 4.6 nM; EC50 ([13]; Homo sapiens, SK-OV-3, 72 h, read-out: EC50 SKOV3 (72 h), ATP luminescence, SKOV3, 72 h incubation): 13 nM; EC50 ([14]; Homo sapiens, 786-0, 72 h, read-out: EC50 786-O (72 h), ATP luminescence, 786-O, 72 h incubation): 36 nM; EC50 ([15]; Homo sapiens, UO-31, 48 h, read-out: EC50 UO-31 (48 h), ATP luminescence, UO-31, 48 h incubation): 13 nM; EC50 ([16]; Homo sapiens, NOMO-1, 72 h, read-out: EC50 Nomo-1 (72 h), ATP luminescence, Nomo-1, 72 h incubation): 4 nM; EC50 ([17]; Homo sapiens, RPMI-8226, 72 h, read-out: EC50 RPMI-8226 (72 h), ATP luminescence, RPMI-8226, 72 h incubation): 8.4 nM; EC50 ([18]; Homo sapiens, SW-620, 96 h, read-out: EC50 SW-620 (96 h), ATP luminescence, SW-620, 96 h incubation): 10 nM
CC[C@H](C)[C@H](NC(=O)[C@H]1CCCCN1C)C(=O)N(COC)[C@H](C[C@@H](OC)c1nc(C(=O)N[C@@H](Cc2ccccc2)C(=O)OC)cs1)C(C)C [Compound 29c]	–	–	–	–	–	–	–	–	–	–	–	–	–	–	–	–	–	–	EC50 ([1]; 3H thymidine method, 72 h incubation, read-out: EC50, U-87 MG): 0.51 nM; EC50 ([2]; 3H thymidine method, 72 h incubation, read-out: EC50, A549): 6.5 nM; EC50 ([3]; 3H thymidine method, 72 h incubation, read-out: EC50, PC3): 11 nM; EC50 ([4]; 3H thymidine method, 72 h incubation, read-out: EC50, BT474): 12 nM; EC50 ([5]; 3H thymidine method, 72 h incubation, read-out: EC50, SKOV3): 1.9 nM; EC50 ([6]; 3H thymidine method, 72 h incubation, read-out: EC50, 786-O): 3.9 nM; EC50 ([7]; 3H thymidine method, 72 h incubation, read-out: EC50, DMS53): 76 nM; EC50 ([8]; 3H thymidine method, 72 h incubation, read-out: EC50, ZR-75): 44 nM; EC50 ([9]; 3H thymidine method, 72 h incubation, read-out: EC50, HL-60): 1.8 nM; EC50 ([10]; 3H thymidine method, 72 h incubation, read-out: EC50, RPMI-8226): 16 nM; EC50 ([11]; ATP luminescence, 72 h incubation, read-out: EC50 HPAC (72 h)): 4.6 nM; EC50 ([12]; ATP luminescence, BT474, 48 h incubation, read-out: EC50 BT474 (48 h)): 492 nM; EC50 ([13]; ATP luminescence, SKOV3, 72 h incubation, read-out: EC50 SKOV3 (72 h)): 17 nM; EC50 ([14]; ATP luminescence, 786-O, 72 h incubation, read-out: EC50 786-O (72 h)): 34 nM; EC50 ([15]; ATP luminescence, UO-31, 48 h incubation, read-out: EC50 UO-31 (48 h)): 26 nM; EC50 ([16]; ATP luminescence, Nomo-1, 48 h incubation, read-out: EC50 Nomo-1 (48 h)): 2.9 nM; EC50 ([17]; ATP luminescence, RPMI-8226, 48 h incubation, read-out: EC50 RPMI-8226 (48 h)): 70 nM; EC50 ([18]; ATP luminescence, SW-620, 96 h incubation, read-out: EC50 SW-620 (96 h)): 8.4 nM
Nc1ccc(C(=O)Nc2ccc3[nH]c(C(=O)N4C[C@@H](CCl)c5c4cc(O)c4ccccc54)cc3c2)cc1 [CBI, reference compound]	0.14	0.072	0.049	1.2	0.047	0.035	1.5	1.5	0.027	0.12	6	5.5	3	1.6	4.2	0.37	4.1	0.33	–
